Data as given in US9707239B2, “Compounds that modulate oxidative stress” (vTv Therapeutics LLC, priority 2011, dated 2017).
“Also recorded” adds a separate entry of the source.

What was measured:
Keap1 = assay: HMOX1 induction after Keap1 silencing (shRNA); type: cell-based, human; details: NHLF cells, FIG. 6
Experimental: Normal human lung fibroblasts were plated in a 12-well tissue culture dish at 16,000 cells/well and allowed to attach overnight. Regular medium was then replaced with 200 μl of fresh growth medium containing 8 μg/ml hexadimethrine bromide (polybrene). Lentiviral transduction particles were then added in the following amounts: Control shRNA (1.1×10^7 TU/ml, Sigma, cat# SHC002V), 15 μl for an MOI of 10; KEAP-1 shRNA (6.3×10^6 TU/ml, Sigma, cat# SHCLNV-TRCN0000046092), 63 μl for an MOI of 20. After 4 hours in the cell culture incubator, another 200 μl of growth medium was added on top of the original volume. Cells were replenished the next day with fresh complete growth medium and were allowed to recover for 24 hours, after which selection medium was applied (complete medium with 1 μg/ml puromycin).
Another method of testing the role of the Nrf2 regulatory pathway on compound activity is to determine the effect of silencing Keap1 on HMOX1 gene expression. It is known that deleting Keap1 will result in the induction of Nrf2 dependent genes but not, to any significant degree, HMOX1. The proposed explanation for this observation is that HMOX1 requires the concomitant derepression of Bach1 activity and that this event is more dependent on active processes (e.g., heme binding, changes in redox potential of the cell, phosphorylation of Bach1, etc.). We therefore tested the ability of Compound 13 and tool compounds to induce HMOX1 in the presence of silencing of Keap1 in normal human lung fibroblasts.
Normal human lung fibroblasts were tested with DMSO, CoPP, Compound 13, and two derivatives including Compound 4 and Compound 8. An electrophile, Compound 1, was also included in the test set. […] On the other hand, induction of HMOX1 by the electrophile Compound 1 was inhibited.

HSPA6 = assay: mRNA expression (Quantigene Plex) in NHLF cells: HSPA6; type: cell-based, human; details: Table 6, 6 h, mRNA normalized to GAPDH, above DMSO treated cells
Experimental: (§1) Secondary growth of NHLF cells were used for all assays. Cell were thawed and then placed into culture in T225 flasks. The cells were grown to 80% confluency and harvested by washing once with HEPES buffered saline solution and then trypsinizing. Equal numbers (7×10^3 cells per well) of NHLF cells were plated in 96 well tissue culture plates (Corning). Cells were incubated overnight in FGM-2 medium prior to exposure to compound. Cells were treated with either DMSO or a compound as described below for 6 h. Preparation of cell lysates was carried out according to instructions using the Quantigene Reagent system 2.0 protocol (Panomics). mRNA induction was detected from cell lysate using the Quantigene Plex 2.0 Assay Kit (Panomics) on the Luminex platform (BIO-RAD). Expression of GAPDH mRNA was used as the internal control for the Quantigen Plex 2.0 Assay. The data in Tables 5 and 6 represents the fold change of target mRNA expression, normalized to control values, above DMSO treated cells.

ICAM = assay: mRNA expression (Quantigene Plex) in NHLF cells: ICAM; type: cell-based, human; details: Table 6, 6 h, mRNA normalized to GAPDH, above DMSO treated cells
Experimental: as §1

HMOX1 [1] = assay: mRNA expression (Quantigene Plex) in NHLF cells: HMOX1; type: cell-based, human; details: Table 6, 6 h, mRNA normalized to GAPDH, above DMSO treated cells
Experimental: as §1

NQO1 = assay: mRNA expression (Quantigene Plex) in NHLF cells: NQO1; type: cell-based, human; details: Table 6, 6 h, mRNA normalized to GAPDH, above DMSO treated cells
Experimental: as §1

GADD45A = assay: mRNA expression (Quantigene Plex) in NHLF cells: GADD45A; type: cell-based, human; details: Table 6, 6 h, mRNA normalized to GAPDH, above DMSO treated cells
Experimental: as §1

NHLF cells [2] = assay: ROS measurements (H2DCF-DA imaging); type: cell-based, human; details: 1 hr; for ROS production (in words): cell-by-cell imaging, FIG. 3A/3B; for elevation of ROS production: relative to untreated controls, FIG. 3A
Experimental: Secondary growth of NHLF cells were used for all assays. Cells were cultured as above. Cells were plated into 384-well BD-Optilux Plates at 2,000 cells/well and cultured overnight at 37° C. and 5% CO2. The following day, cell were washed and 2,7-dihydrodichlorofluorescin diacetate (H2DCF-DA), 10 μM ferric ammonium citrate (FAC), and Hoechst stain were added to cells for 30 min. The cells were washed once with PBS to remove any H2DCF-DA not taken up by cells. Test compounds were prepared in FBM-2 media at the desired concentrations. The plates and stain-treated cells were incubated with test compounds for 1 hr at 37° C. and 5% CO2. Following the incubation period, ROS generation was determined by imaging the cells on a GE INcell 1000 imager (Hoechst Ex. 360 Em. 535; H2DCF-DA 488 Ex. 480 Em. 535). ROS levels were determined and quantified using GE IN Cell Analyzer Software.
In addition to gene profiling, the requirement for ROS generation or chemical reactivity was tested. ROS generation was measured using an automated imaging technique. Compound 13 as well as two other compounds that were found in the screening set were tested in this experiment. Untreated NHLF cells, NHLF cells treated with the HMOX1 inducer CoPP (a negative control), and NHLF cells treated with curcumin or celestrol (positive controls) were included as controls. […] Further experiments were also conducted on chemical derivatives of Compound 13. In those experiments, all compounds tested were found not to induce an elevation of ROS levels in the cell (FIG. 3B). Thus, Compound 13 and related compounds represent a class of agents that elevate HMOX1 production without elevating ROS production.

TXNRD1 = assay: mRNA expression (Quantigene Plex) in NHLF cells: TXNRD1; type: cell-based, human; details: Table 6, 6 h, mRNA normalized to GAPDH, above DMSO treated cells
Experimental: as §1

HMOX1 [3] = assay: HMOX1 induction in NHLF cells in the cisplatin cytoprotection model; type: cell-based, human; details: compound 24 hours prior to cisplatin, FIG. 8
Experimental: (§2) A key outcome of Bach1 derepression and Nrf2 activation are the induction of cytoprotective genes. A method to test such cytoprotection is to assess the ability of a compound to protect normal human cells such as lung fibroblasts from toxicity due to cisplatin exposure. A model of cellular cytoprotection was established whereby normal human lung fibroblasts were treated with Bach1 modulators and then subsequently exposed to cisplatin. NHLF cells are very sensitive to cisplatin exposure; following a dose of 200 uM cisplatin, >90% of NHLF cells are propidium iodide positive, a measure of cell death.

NHLF cells [4] = assay: Cytoprotection of cisplatin (CDDP)-treated NHLF cells (propidium iodide staining); type: cell-based
Experimental: as §2

HMOX1 [5] = assay: Effect of NAC on compound induction of HMOX gene expression; type: cell-based, human; details: NHLF cells pretreated with 5 mM NAC 1 hr, compound 6 h, FIG. 4
Experimental: NHLF cells were grown to 80% confluency and harvested by washing once with HEPES and then trypsinizing. Equal numbers (7×10^4 cells per well) of NHLF cells were plated in 96 well tissue culture (Corning) plates. Cells were incubated overnight in FGM-2 medium prior to exposure to compound. Cells were pretreated with 5 mM N-acetyl cysteine for 1 hr. Cells were treated with either DMSO or compound for 6 h. Preparation of cell lysates was carried out according to Quantigene Reagent system 2.0 protocol (Panomics). Heme oxygenase mRNA induction was detected from cell lysate using the Quantigene Plex 2.0 Assay Kit (Panomics) on the Luminex platform (BIO-RAD). Expression of GAPDH mRNA was used as the internal control for the Quantigen Plex 2.0 Assay. Heme oxygenase data represents the fold change, normalized to control values, above DMSO treated cells.
A further test of the hypothesis that Compound 13 induces HMOX1 with minimal alteration of cellular redox levels or chemical reactivity was carried out by treating cells with N-acetyl cysteine (NAC). This compound acts to restore cellular glutathione levels and thus prevent oxidative stress. The degree to which NAC can suppress HMOX1 induction is an indicator of the amount of chemical reactivity or ROS stress that a compound is imposing on the cell and thus activating phase II gene transcription. […] Coupled with the data shown in FIG. 3, it is concluded that Compound 13 induces HMOX1 with minimal elevation of ROS or NAC-sensitive chemical reactivity.

Row | HSPA6 (fold induction) (HSPA6) | ICAM1 (fold induction) (ICAM) | HMOX1 (fold induction) (HMOX1 [1]) | NQO1 (fold induction) (NQO1) | GADD45A (fold induction) (GADD45A) | TXNRD1 (fold induction) (TXNRD1) | SMILES | ROS production (in words) (NHLF cells [2]) | other results
1 |  |  |  |  |  |  | CCOC(=O)/C=C/c1cnc2ccccc2c1S(=O)(=O)C1CCOC1C (stereo not drawn) [Compound 1, (E)-3-[4-(2-Methyl-tetrahydro-furan-3-sulfonyl)-quinolin-3-yl]-acrylic acid ethyl ester] |  | HMOX1 induction in the presence of Keap1 silencing (Keap1): inhibited
2 | 1.08 fold induction | 0.77 fold induction | 56.15 fold induction | 1.85 fold induction | 2.00 fold induction | 1.74 fold induction | COC(=O)c1ccc2[nH]c(Nc3nc4ccccc4s3)nc2c1 [Compound 4, 2-(Benzothiazol-2-ylamino)-1H-benzoimidazole-5-carboxylic acid methyl ester] | no demonstrable increase in ROS production | HMOX1 induction in the presence of Keap1 silencing (Keap1): unaffected in their ability to induce HMOX1 in the presence of Keap1 silencing; also recorded: behaves similarly to CoPP induction
3 | 1.60 fold induction | 1.16 fold induction | 23.97 fold induction | 2.01 fold induction | 0.89 fold induction | 1.83 fold induction | COC(=O)[C@]12CCC(C)(C)CC1C1C(=O)C=C3[C@@]4(C)CC(C#N)C(=O)C(C)(C)[C@@H]4CC[C@@]3(C)[C@]1(C)CC2 (stereo partly drawn) [Compound 5, (4aS,6aR,6bS,8aR,12aS)-11-Cyano-2,2,6a,6b,9,9,12a-heptamethyl-10,14-dioxo-1,3,4,5,6,6a,6b,7,8,8a,9,10,11,12,12a,14, 14a,14b-octadecahydro-2H-picene-4a-carboxylic acid methyl ester, reference compound] | no demonstrable increase in ROS production | 
4 |  |  |  |  |  |  | Cc1nc(Nc2nc3cc(C(=O)NCCOCCN)ccc3[nH]2)sc1C [Compound 11, 2-(4,5-Dimethyl-thiazol-2-ylamino)-1H-benzoimidazole-5-carboxylic acid [2-(2-amino-ethoxy)-ethyl]-amide] |  | HMOX1 induction (HMOX1 [3]): inactive HMOX1 inducers; also recorded: did not induce HMOX1; protection against cisplatin toxicity (NHLF cells [4]; NHLF cells, compound 24 hours prior to cisplatin exposure, FIG. 8): failed to protect NHLF cells against cisplatin toxicity; also recorded: failed to protect cells from CDDP-mediated cytotoxicity
5 |  |  |  |  |  |  | CC1=C(O)C(=O)C=C2C1=CC=C1[C@@]2(C)CC[C@@]2(C)[C@@H]3C[C@](C)(C(=O)O)CC[C@]3(C)CC[C@]12C [celestrol, reference compound] |  | effect of N-acetyl cysteine (NAC) on HMOX1 induction (HMOX1 [5]): inhibited nearly fully by NAC; also recorded: fully suppressed in the presence of NAC; elevation of ROS production (NHLF cells [2]): ~2 fold
6 |  |  |  |  |  |  | N.N.[Cl][Pt][Cl] [cisplatin, reference compound] |  | NHLF cells propidium iodide positive (cell death) (NHLF cells [4]; 200 uM cisplatin): > 90%
7 |  |  |  |  |  |  | COc1cc(/C=C/C(=O)CC(=O)/C=C/c2ccc(O)c(OC)c2)ccc1O [curcumin, reference compound] |  | effect of N-acetyl cysteine (NAC) on HMOX1 induction (HMOX1 [5]): inhibited nearly fully by NAC; also recorded: fully suppressed in the presence of NAC; elevation of ROS production (NHLF cells [2]): approximately 3 fold

Row | SMILES | HSPA6 (fold induction) (HSPA6) | ICAM1 (fold induction) (ICAM) | HMOX1 (fold induction) (HMOX1 [1]) | NQO1 (fold induction) (NQO1) | GADD45A (fold induction) (GADD45A) | TXNRD1 (fold induction) (TXNRD1) | ROS production (in words) (NHLF cells [2]) | other results
8 | CC1OCCC1S(=O)(=O)c1c(-c2ccc(C(F)(F)F)cc2)cnc2ccccc12 (stereo not drawn) [Compound 3, 4-(2-Methyl-tetrahydro-furan-3-sulfonyl)-3-(4-trifluoromethyl-phenyl)-quinoline] | 2.71 fold induction | 1.47 fold induction | 45.17 fold induction | 1.69 fold induction | 1.37 fold induction | 1.47 fold induction | no demonstrable increase in ROS production | 
